The test system of the first assay is Jurkat FADD (−/−) Cells. The assay is described as follows: TNF-α induced necroptosis of Jurkat FADD-deficient cells (CellTiter-Glo cell survival). The following applies: Homo sapiens; TNF-α induced necroptosis, Jurkat FADD-deficient cells, 13 hours, CellTiter-Glo; read-out: IC50. The assay is classed as cell-based, human. Here is the method:
1. Cell Activity Testing System (TNF-α Induces the Necroptosis of Jurkat Cells, the Human Leukemia Cells Deficient in FADD).
(1) Cell culture: Jurkat FADD-deficient cells were cultured in an RPMI 1640 medium with 10% fetal bovine serum (FBS), 100 U/mL penicillin, and 100 […]. The cells were cultured in a cell culture incubator at 37° C. with 5% CO2. And all the cells were cryopreserved in a complete medium containing 5-10% DMSO. Medium change and passage were performed 3-4 times per week.
(4) Experimental scheme: The system of TNF-α inducing the necroptosis of Jurkat FADD-deficient cells was used to screen for compounds with RIPKl kinase inhibitory activity.
Jurkat FADD-deficient cells were evenly inoculated into a 384-well plate with each well added with a 40 μL complete culture medium, followed by the addition of 5 μL of the under-testing compound to each well. The initial concentration of the compounds was set at 25 μM (for some compounds with higher activity, the initial concentration was set at 0.5 μM), with a three-fold gradient dilution, totaling 12 gradient points. Three replicate wells were set for each compound. In addition, there was a blank control group and a control group with TNFα stimulation only. After the compound was added, the mixture needed to be centrifuged and incubated in a cell culture incubator at 37° C. containing 5% CO2 for 1 hour. After that, 5 μL of 5 ng/mL TNFα was added to stimulate the occurrence of necroptosis. After centrifugation and mixing, the mixture was placed in the cell culture incubator for 13 hours (until the cell death rate reaches 65% in the group with only TNF-α), with a total volume of 50 μL per well. Then, the steps below were followed to test the cell survival rate.
The CellTiter-Glo® Buffer was removed from the reagent kit, equilibrated to room temperature, and used to dissolve the CellTiter-Glo® Substrate. The CellTiter-Glo® Reagent obtained could be directly used for the experiment.
15 μL of CellTiter-Glo® Reagent which has been equilibrated to room temperature was added to each well, and incubated in the dark for 15 minutes. After that, a microplate reader (Enspire Multimode Plate Reader of PerkinElmer, USA) was used to measure the chemiluminescence.
`CN1C(=O)C(NC(=O)c2nnc(Cc3ccccc3)[nH]2)Cc2cn(-c3cccnc3)c3cccc1c23` (racemic) [T-101, (±)-5-benzyl-N-(1-methyl-2-oxo-6-(pyridin-3-yl)-2,3,4,6-tetrahydro-1H-azacyclo [4,3,2-cd]indol-3-yl)-4H-1,2,4-triazole-3-carboxamide]: the IC50 was in the range of 10 to 100 nM.

Regarding `CC(=O)c1cccnc1-n1cc2c3c(cccc31)N(C)C(=O)C(NC(=O)c1nnc(Cc3ccccc3)[nH]1)C2` (racemic) [T-59, (±)-N-(6-(3-acetylpyridin-2-yl)-1-methyl-2-oxo-2,3,4,6-tetrahydro-1H-azacyclo [4,3,2-cd]indol-3-yl)-5-benzyl-4H-1,2,4-triazole-3-carboxamide], the IC50 was less than 10 nM.

On to `CN1C(=O)C(NC(=O)c2nnc(Cc3ccccc3)[nH]2)Cc2cn(-c3ncccc3C(N)=O)c3cccc1c23` (racemic) [T-61, (±)-2-(3-(5-benzyl-4H-1,2,4-triazole-3-carboxamide)-1-methyl-2-oxy-1,2,3,4-tetrahydro-6H-azacyclo [4,3,2-cd]indol-6-yl)nicotinamide], for which the IC50 was 10 to 100 nM.

Regarding `CN1C(=O)C(NC(=O)c2ncc(Cc3ccccc3)o2)Cn2ccc3cccc1c32` (racemic) [T-2, (±)-5-benzyl-N-(1-methyl-2-oxy-1,2,3,4-tetrahydro-[1,4]diazepino [3,2,1-hi]indol-3-yl) oxazole-2-carboxamide], the IC50 was less than 10 nM.

Take `COc1cccc(OC)c1-c1cn2c3c(cccc13)N(C)C(=O)C(NC(=O)c1nnc(Cc3ccccc3)[nH]1)C2` (racemic) [T-85, (±)-5-benzyl-N-(7-(2,6-dimethoxyphenyl)-1-methyl-2-oxo-1,2,3,4-tetrahydro-[1,4]diazepino [3,2,1-hi]indol-3-yl)-4H-1,2,4-triazole-3-carboxamide]: the IC50 was in the range of 100 to 1000 nM.

As to `CN1C(=O)C(NC(=O)c2nnc(Cc3ccccc3)[nH]2)Cc2c[nH]c3cncc1c23` (racemic) [T-130, (±)-5-benzyl-N-(6-methyl-7-oxo-6,7,8,9-tetrahydro-2H-2,3,6-triazabenzene[cd]azulene-8-yl)-4H-1,2,4-triazol-3-carboxamide], the half-maximal inhibitory concentration (IC50) was greater than 1000 nM.

On to `CN1C(=O)[C@@H](NC(=O)c2nnc(Cc3ccccc3)[nH]2)Cn2cc(-c3cn(C)nc3-c3ccccc3)c3cccc1c32` [T-122, (S)-5-benzyl-N-(1-methyl-7-(1-methyl-3-phenyl-1H-pyrazol-4-yl)-2-oxo-1,2,3,4-tetrahydro-[1,4]diazepine [3,2,1-hi]indol-3-yl)-4H-1,2,4-triazole-3-carboxamide], for which the IC50 is 10 to 100 nM.

As to `CN1C(=O)C(NC(=O)c2nnc(Cc3ccccc3)[nH]2)Cc2cn(CC(N)=O)c3cccc1c23` (racemic) [T-31, (±)-N-(6-(2-amino-2-oxoethyl)-1-methyl-2-oxo-2,3,4,6-tetrahydro-1H-azacyclo [4,3,2-cd]indol-3-yl)-5-benzyl-4H-1,2,4-triazole-3-carboxamide], the IC50 was 100 to 1000 nM.

Turning to `COc1cccnc1-n1cc2c3c(cccc31)N(C)C(=O)C(NC(=O)c1nnc(Cc3ccccc3)[nH]1)C2` (racemic) [T-41, (±)-5-benzyl-N-(6-(3-methoxypyridin-2-yl)-1-methyl-2-oxo-2,3,4,6-tetrahydro-1H-azacyclo [4,3,2-cd]indol-3-yl)-4H-1,2,4-triazole-3-carboxamide], the concentration for half-maximal inhibition (IC50) was less than 10 nM.

`Cc1noc(C)c1-c1cn2c3c(cccc13)N(C)C(=O)C(NC(=O)c1nnc(Cc3ccccc3)[nH]1)C2` (centres unmarked) [T-86, 5-benzyl-N-(7-(3,5-dimethylisoxazol-4-yl)-1-methyl-2-oxo-1,2,3,4-tetrahydro-[1,4]diazepine[3,2,1-hi]indol-3-yl)-4H-1,2,4-triazole-3-carboxamide]: the IC50 is less than 10 nM.

For the compound `CC(C)c1cccnc1-n1cc2c3c(cccc31)N(C)C(=O)C(NC(=O)c1nnc(Cc3ccccc3)[nH]1)C2` (racemic) [T-65, (±)-5-benzyl-N-(6-(3-isopropylpyridin-2-yl)-1-methyl-2-oxo-2,3,4,6-tetrahydro-1H-azacyclo [4,3,2-cd]indol-3-yl)-4H-1,2,4-triazole-3-carboxamide], the IC50 is 10 to 100 nM.

Consider `CN1C(=O)C(NC(=O)c2nnc(Cc3ccccc3)[nH]2)Cc2cn(-c3ncccc3P(C)(C)=O)c3cccc1c23` (racemic) [T-110, (±)-5-benzyl-N-(6-(3-(dimethylphosphoryl)pyridin-2-yl)-1-methyl-2-oxo-2,3,4,6-tetrahydro-1H-aza [4,3,2-cd]indol-3-yl)-4H-1,2,4-triazole-3-carboxamide], for which the IC50 is greater than 1000 nM.

With `CN1C(=O)C(NC(=O)c2nnc(Cc3ccccc3)[nH]2)Cc2cn(-c3cncn3C)c3cccc1c23` (racemic) [T-74, (±)-5-benzyl-N-(1-methyl-6-(1-methyl-1H-imidazol-5-yl)-2-oxo-2,3,4,6-tetrahydro-1H-azacyclo [4,3,2-cd]indol-3-yl)-4H-1,2,4-triazole-3-carboxamide], the half-maximal inhibitory concentration (IC50) is less than 10 nM.

Take `CN1C(=O)C(NC(=O)c2nnc(Cc3ccccc3)[nH]2)Cc2cn(-c3ccccn3)c3cccc1c23` (racemic) [T-69, (±)-5-benzyl-N-(1-methyl-2-oxo-6-(pyridin-2-yl)-2,3,4,6-tetrahydro-1H-azacyclo [4,3,2-cd]indol-3-yl)-4H-1,2,4-triazole-3-carboxamide]: the IC50 was in the range of 10 to 100 nM.

With `CNS(=O)(=O)c1cccnc1-n1cc2c3c(cccc31)N(C)C(=O)C(NC(=O)c1nnc(Cc3ccccc3)[nH]1)C2` (racemic) [T-75, (±)-5-benzyl-N-(1-methyl-6-(3-(N-methylsulfamoyl)pyridin-2-yl)-2-oxo-2,3,4,6-tetrahydro-1H-azacyclo [4,3,2-cd]indol-3-yl)-4H-1,2,4-triazole-3-carboxamide], the IC50 was 10 to 100 nM.

Consider `CN1C(=O)C(NC(=O)c2nnc(Cc3ccccc3)[nH]2)Cc2cn(CC3CC3)c3cccc1c23` (racemic) [T-22, (±)-5-benzyl-N-(6-(cyclopropylmethyl)-1-methyl-2-oxo-2,3,4,6-tetrahydro-1H-azacyclo [4,3,2-cd]indol-3-yl)-4H-1,2,4-triazole-3-carboxamide], for which the IC50 was 10 to 100 nM.

As for `CN1C(=O)C(NC(=O)c2nnc(Cc3ccccc3)[nH]2)Cc2cn(S(=O)(=O)c3ccccc3)c3cccc1c23` (racemic) [T-21, (±)-5-benzyl-N-(1-methyl-2-oxo-6-(benzenesulfonyl)-2,3,4,6-tetrahydro-1H-aza [4,3,2-cd]indol-3-yl)-4H-1,2,4-triazole-3-carboxamide], the IC50 lay in the range of 100 to 1000 nM.

`CN1C(=O)[C@@H](NC(=O)c2nnc(Cc3ccccc3)[nH]2)Cn2cc(-c3cnc(Cl)n3C)c3cccc1c32` [T-126, (S)-5-benzyl-N-(7-(2-chloro-1-methyl-1H-imidazol-5-yl)-1-methyl-2-oxo-1,2,3,4-tetrahydro-1,4-diazepine [3,2,1-hi]indol-3-yl)-4H-1,2,4-triazole-3-carboxamide]: the IC50 fell in the range of 10 to 100 nM.

In the case of `CN1C(=O)C(NC(=O)c2nnc(Cc3ccccc3)[nH]2)Cc2cn(-c3ccn(C)n3)c3cccc1c23` (racemic) [T-37, (±)-5-benzyl-N-(1-methyl-6-(1-methyl-1H-pyrazol-3-yl)-2-oxo-2,3,4,6-tetrahydro-1H-azacyclo [4,3,2-cd]indol-3-yl)-4H-1,2,4-triazole-3-carboxamide], the IC50 was less than 10 nM.

Regarding `CN1C(=O)C(NC(=O)c2nnc(Cc3ccccc3)[nH]2)Cn2cc(Br)c3ccc(Br)c1c32` (racemic) [T-79, (±)-5-benzyl-N-(7,10-dibromo-1-methyl-2-oxo-1,2,3,4-tetrahydro-[1,4]diazepino [3,2,1-hi]indol-3-yl)-4H-1,2,4-triazole-3-carboxamide], the IC50 is greater than 1000 nM.

As to `CN1C(=O)C(NC(=O)c2nnc(Cc3ccccc3)[nH]2)Cn2cc(-c3ccnc(C(F)(F)F)c3)c3cccc1c32` (racemic) [T-77, (±)-5-benzyl-N-(1-methyl-2-oxo-7-(2-(trifluoromethyl)pyridin-4-yl)-1,2,3,4-tetrahydro-[1,4]diazepino [3,2,1-hi]indol-3-yl)-4H-1,2,4-triazole-3-carboxamide], the IC50 lay in the range of 100 to 1000 nM.

With `CN1C(=O)[C@@H](NC(=O)c2nnc(Cc3ccccc3)[nH]2)Cn2cc(-c3cnn(C(F)F)c3)c3cccc1c32` [T-115, (S)-5-benzyl-N-(7-(1-(difluoromethyl)-1H-pyrazol-4-yl)-1-methyl-2-oxo-1,2,3,4-tetrahydro-1,4-diazepine [3,2,1-hi]indol-3-yl)-4H-1,2,4-triazole-3-carboxamide], the IC50 is 10 to 100 nM.

Still in this assay, the particulars now being: TNF-α induced necroptosis, Jurkat FADD-deficient cells, 13 hours, CellTiter-Glo; read-out: IC50.
For the compound “(±)-5-(3-(5-benzyl-4H-1,2,4-triazole-3-carboxamido)-1-methyl-2-oxo-1,2,3,4-tetrahydro-6H-azacyclo [4,3,2-cd] indol-6-yl)oxazole-4-carboxylate [T-98]”, the IC50 is less than 10 nM.

The record behind these values is US20250049812A1, “Compounds that Inhibit Necroptosis and Their Preparation Methods” (SHANGHAI INSTITUTE OF ORGANIC CHEMISTRY, CHINESE ACADEMY OF …, priority 2021, published 2025).
